System: endogenous MuRF1
Assay: Endogenous MuRF1 expression in HepG2 cells by Taqman RT-PCR
Type: cell-based, human
Procedure: Cultured HepG2 cells were exposed to 1 μM dexamethasone, 10 μM dexamethasone, 100 ng/ml GDF8, 100 ng/ml TGFβ1, and 10 μM dexamethasone+100 ng/ml GDF8, and expression of endogenous MuRF1 was evaluated by RT-PCR using Taqman RT-PCR assay. […] 10 μM dexamethasone induced expression of endogenous MuRF1 2.5× over the no treatment control, and 100 ng/ml GDF8 induced expression of endogenous MuRF1 1.8× over the no treatment control.
MuRF1 induction is observable at four hours of treatment, as compared to controls.

C[C@@H]1C[C@H]2[C@@H]3CCC4=CC(=O)C=C[C@]4(C)[C@@]3(F)[C@@H](O)C[C@]2(C)[C@@]1(O)C(=O)CO [dexamethasone]
induction of endogenous MuRF1 expression over the no treatment control (10 μM dexamethasone alone): 2.5 ×

GDF8: secreted TGFβ protein family member that inhibits muscle differentiation and growth; ligand for the myostatin receptor
induction of endogenous MuRF1 expression over the no treatment control (100 ng/ml GDF8 alone): 1.8 ×

— patent US9845512B2, “Screening assay employing Dex and GDF8” (RIGEL PHARMACEUTICALS, INC., priority 2010, dated 2017)
